Assays:
[1] = Particle size distribution of hydrogen fumarate salt 11; format: physicochemical; conditions: for D-value: in µm (unit assumed)
Description: VMD=[…]; STD=[…]; Duration=0.04; Copt=2.90.

[2] = Thermogravimetric analysis / DSC weight loss; format: physicochemical; conditions: <120° C.
Description: Differential scanning calorimetry (“DSC”) was performed with a TA Q2000 instrument, using approx 1 mg of sample in a crimped Al pan, heating from room temperature to 300° C. at a rate of 10° C./min.
Thermogravimetric analysis (“TGA”) was performed with a TA Q5000 instrument, using approx 2-5 mg of sample in an open Pt pan, heating from room temperature to 300° C. at a rate of 10° C./min.

PSD D90 ([1]; 8500 mg scale-up batch): D90 = 43 uM | D-value ([1]; % level 5): 1.20 | D-value ([1]; % level 10): 2.21 | D-value ([1]; % level 15): 3.64 | D-value ([1]; % level 20): 5.39 | D-value ([1]; % level 25): 7.16 | D-value ([1]; % level 30): 8.89 | D-value ([1]; % level 35): 10.58 | D-value ([1]; % level 40): 12.28 | D-value ([1]; % level 45): 14.04 | D-value ([1]; % level 50): 15.88 | D-value ([1]; % level 55): 17.79 | D-value ([1]; % level 60): 19.93 | D-value ([1]; % level 65): 22.30 | D-value ([1]; % level 70): 24.85 | D-value ([1]; % level 75): 28.06 | D-value ([1]; % level 80): 31.79 | D-value ([1]; % level 85): 36.34 | D-value ([1]; % level 90): 42.91 | D-value ([1]; % level 95): 54.73 | weight loss (TGA, %) [2]: 0.11% (<120° C.)
SMILES: CC(C)c1nc(-c2cnc(N)c(OC(F)(F)F)c2)cn1C12CC(N3CCOCC3)(C1)C2.O=C(O)/C=C/C(=O)O [Example 11, 5-(2-isopropyl-1-(3-morpholinobicyclo[1.1.1]pentan-1-yl)-1H-imidazol-4-yl)-3-(trifluoromethoxy)pyridin-2-amine hydrogen fumarate]
